Measured values from BindingDB's records for doi:10.7270/Q24B305P (D3R/Abbott, 2015).
pKi: −log10 of the molar value.

What follows are compounds tested against T1, Urokinase-type plasminogen activator [179-424,C299A,N323Q] (Human, UniProt P00749, C299A/N323Q) (assay: Photometric_Method1).
T1 construct: 179-424

SMILES	pKi
N=C(N)c1ccc2ccccc2c1 [Naphthalene-2-carboxamidine]	5.23
Nc1cnc2ccccc2n1 [uPa_1]	< 4.30
COc1ccc2ccc(C(=N)N)cc2c1-c1cnn(C(C)C)c1 [uPa_11]	5.35
N#CC(CCOc1cccc2ccc(N)nc12)(c1ccccc1)c1ccccc1 [uPa_16]	< 4.40
COC(=O)Nc1cc(C(=O)Nc2ccc(CN)cc2)cc2ccc(C(=N)N)cc12 [uPa_17]	9.05
CS(=O)(=O)n1cc(-c2cc(C(=O)Nc3ccccc3)cc3ccc(C(=N)N)cc23)cn1 [uPa_20]	6.11
N=C(N)NC(=O)c1nc(Cl)c(NCc2cc(Cl)cc(Cl)c2)nc1N [uPa_22]	5.45
COC(=O)Nc1ccc2nc(N)ccc2c1 [uPa_24]	< 4.30
COC(=O)Nc1ccc2nc(C(=N)N)ccc2c1 [uPa_27]	< 4.30
COc1cc(NC(=O)c2ccc3cc(C(=N)N)ccc3c2)cc(OC(C)C)c1 [uPa_28]	7.48
N=C(N)c1ccc2cc(C(=O)Nc3ccc4c(c3)C(c3ccccc3)=NCC4)ccc2c1 [uPa_29]	6.54
CC(C)CN(CC(C)C)C(=O)c1ccc2ccc(N)nc2c1 [uPa_34]	< 4.00
CN(CC#N)C(=O)c1ccc2ccc(N)nc2c1 [uPa_35]	< 4.00
COC(=O)Nc1cc(C(=O)Nc2ccccc2)cc2ccc(C(=N)N)cc12 [uPa_36]	7.74
CCOc1cc(OCC)c(OCC)cc1/C=C/c1cc(Br)c2cc(C(=N)N)ccc2c1 [uPa_38]	6.11
COC/C=C/c1cc(C2CC2c2ccc3c(c2)C(C(C)C)N(C)CC3)cc2ccc(C(=N)N)cc12 (stereo not given) [uPa_39]	7.68
CN1CCc2ccc(/C=C/c3ccc4cc(C(=N)N)ccc4c3)cc2C1C1CCCCC1 (stereo not given) [uPa_40]	6.65
COc1cc(C2CC2c2ccc3c(c2)C(C(C)C)N(C)CC3)cc2ccc(C(=N)N)cc12 (stereo not given) [uPa_42]	7.03
CN1CCc2ccc(C3CC3c3ccc4cc(C(=N)N)ccc4c3)cc2C1c1cccnc1 (stereo not given) [uPa_44]	5.90
N=C(N)NC(=O)c1ccc(Cl)c(S(N)(=O)=O)c1 [uPa_45]	< 4.00

The next lines start with the values.

pKi	SMILES
< 4.52	Nc1cc2ccccc2cn1
5.10	COc1cc2ccc(C(=N)N)cc2c(OC)c1OC [uPa_2]
5.14	CC(C)Oc1ccc2cc(C(=N)N)ccc2c1 [uPa_5]
5.06	N=C(N)c1ccc2cc(NS(=O)(=O)c3ccccc3)ccc2c1 [uPa_14]
5.11	N=C(N)c1ccc2cc(C(=O)Nc3ccccc3)cc(-c3ncccn3)c2c1 [uPa_21]
< 3.98	Nc1ccc2nc(N)ccc2c1 [uPa_23]
6.18	N=C(N)c1ccc2cc(C#Cc3cccc(OC4CCCC4)c3)ccc2c1 [uPa_25]
7.80	CC(C)C1=NCCc2ccc(NC(=O)c3cc(Br)c4cc(C(=N)N)ccc4c3)cc21 [uPa_26]
< 5.00	C=CCNC(=O)Nc1cccc2ccc(N)nc12 [uPa_30]
7.18	N=C(N)c1ccc2cc(C(=O)Nc3ccc4c(c3)C(C3CCCCC3)=NCC4)ccc2c1 [uPa_31]
5.51	N=C(N)c1ccc2cc(/C=C/CCc3cccnc3)cc(Br)c2c1 [uPa_32]
< 4.00	C#CCN(C)C(=O)c1ccc2ccc(N)nc2c1 [uPa_33]
5.83	CS(=O)(=O)Nc1cc(CCc2ccccc2)cc2ccc(C(=N)N)cc12 [uPa_37]
7.38	CN1CCc2ccc(C3CC3c3ccc4cc(C(=N)N)ccc4c3)cc2C1C1CCC1 (stereo not given) [uPa_41]
8.05	CC(C)C1c2cc(C3CC3c3cc(/C=C/C4CC4)c4cc(C(=N)N)ccc4c3)ccc2CCN1C (stereo not given) [uPa_43]
